Assay [1] deals with HPDE (immortalized pancreatic duct cell line). The assay can be described thus: Drug combination viability screen (ATPlite, 72 h).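 Further: area under vehicle-normalized viability curve scaled 0 to 100 percent.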 It is filed as cell-based, human. The conditions noted are these: single agent, HPDE. Here is the method: Cell viability was assessed by measuring ATP levels to indicate metabolic activity.
Afterward, small amounts were transferred to 384-well intermediate plates (Greiner Bio-One GmbH, Germany). […] For drug combination screening, 1000 to 5000 cells were seeded into 384-well plates (CulturPlate™, Perkin Elmer, MA, USA) using a Multidrop™ Combi Reagent Dispenser (Thermo Scientific, MA, USA) in 50 µl medium per well 24 h prior to drug treatment (seeding densities see Appendix Table S1). […] The final DMSO concentration in each well was 0.2%. […] Eight wells per plate without library drug served as negative controls, and sixteen wells per plate containing 5 µM Staurosporine served as positive controls. Control plates not containing any drug were used to correct for incubation effects, and data quality was assessed by calculation of Z-prime of positive and negative controls according to1 Z-prime=1−3SDpos+3SDneg/[…] where SD is the standard deviation. […] Dose–response curves from the experimental and hypothetical data were compared, and shifts in AUC were used to describe combination effects (AUC∆ = AUChypothetical − AUCexperimental). […] Only combinations with R^2 > 0.8 in both conditions were considered in the synergy analysis.

The subject of a further assay is PaTu-8988-T. As to the kind of experiment: cells. Also noted: ATPlite luminescence viability of PDAC cell lines, 11-dose single-agent curves, 4-parameter fit. The conditions noted are these: Homo sapiens, PaTu 8988t, 72 h, read-out: EC50 [nM]. In outline:
(§1)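 cells (1000 to 5000 per well) seeded 24 h before drug addition in a combination screen at 0.2% final DMSO. Controls were drug-free wells (negative) and 5 µM staurosporine (positive).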

The test system of the next assay is Colo-357. As to the kind of experiment: cells. Details: ATPlite luminescence viability of PDAC cell lines, 11-dose single-agent curves, 4-parameter fit. The conditions noted are these: Homo sapiens, COLO357, 72 h, read-out: EC50 [nM]. In short, it runs like this: as §1
A further assay concerns Dan-G. The assay can be described thus: cells. The conditions noted are these: 72 h, read-out: EC50 [nM]. Details: ATPlite luminescence viability of PDAC cell lines, 11-dose single-agent curves, 4-parameter fit. In short, it runs like this: as §1
The next assay concerns AsPC-1. As to the kind of experiment: cells. Details: ATPlite luminescence viability of PDAC cell lines, 11-dose single-agent curves, 4-parameter fit. The conditions noted are these: Homo sapiens, ASPC1, 72 h, read-out: EC50 [nM]. In outline:
as §1

The test system of the next assay is FAMPAC. As to the kind of experiment: cells. Details: ATPlite luminescence viability of PDAC cell lines, 11-dose single-agent curves, 4-parameter fit. The conditions noted are these: 72 h, read-out: EC50 [nM]. In short, it runs like this:
as §1

The subject of a further assay is MiaPaCa-2. As to the kind of experiment: cells. Also noted: ATPlite luminescence viability of PDAC cell lines, 11-dose single-agent curves, 4-parameter fit. The conditions noted are these: Homo sapiens, MIA PaCa-2, 72 h, read-out: EC50 [nM]. In short, it runs like this:
as §1

For the next assay, the system named is BxPC-3. The assay can be described thus: cells. Details: ATPlite luminescence viability of PDAC cell lines, 11-dose single-agent curves, 4-parameter fit. The conditions noted are these: Homo sapiens, BXPC-3, 72 h, read-out: EC50 [nM]. In short, it runs like this: as §1
The next assay has as its system Suit2-07. As to the kind of experiment: cells. The conditions noted are these: 72 h, read-out: EC50 [nM]. Details: ATPlite luminescence viability of PDAC cell lines, 11-dose single-agent curves, 4-parameter fit. In short, it runs like this: as §1
Another assay has as its system Capan-1. The assay can be described thus: cells. Details: ATPlite luminescence viability of PDAC cell lines, 11-dose single-agent curves, 4-parameter fit. The conditions noted are these: Homo sapiens, CAPAN-1, 72 h, read-out: EC50 [nM]. In outline: as §1
Assay [2] concerns PANC-1. As to the kind of experiment: cells. The conditions noted are these: Homo sapiens, PANC-1, 72 h, read-out: EC50 [nM]. Details: ATPlite luminescence viability of PDAC cell lines, 11-dose single-agent curves, 4-parameter fit. In short, it runs like this: as §1
The next assay relates to PSN-1. As to the kind of experiment: cells. Also noted: ATPlite luminescence viability of PDAC cell lines, 11-dose single-agent curves, 4-parameter fit. The conditions noted are these: Homo sapiens, PSN1, 72 h, read-out: EC50 [nM]. In short, it runs like this: as §1
The next assay has as its system HPDE. The assay can be described thus: cells. The conditions noted are these: HPDE, 72 h, read-out: EC50 [nM]. Details: ATPlite luminescence viability of PDAC cell lines, 11-dose single-agent curves, 4-parameter fit. In short, it runs like this:
as §1

A further assay has as its system HuP-T4. The assay can be described thus: cells. The conditions noted are these: Homo sapiens, HuP-T4, 72 h, read-out: EC50 [nM]. Details: ATPlite luminescence viability of PDAC cell lines, 11-dose single-agent curves, 4-parameter fit. In short, it runs like this:
as §1

The subject of assay [3] is PANC-1. As to the kind of experiment: cells. Also noted: Viability of PDAC cell lines, ATPlite luminescence, 11-dose single-agent curve fit. The conditions noted are these: Homo sapiens, PANC-1, 72 h, read-out: EC50 [nM]. In short, it runs like this:
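cells (1000 to 5000 per well) seeded 24 h before drug addition in a screen at 0.2% final DMSO. Controls were drug-free wells (negative) and 5 µM staurosporine (positive).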

Where two headings read alike, the source gives them in different places.

In general, EC50 refers to the midpoint of the concentration-response curve.

For `CN(C)C/C=C/C(=O)Nc1cc2c(Nc3ccc(F)c(Cl)c3)ncnc2cc1O[C@H]1CCOC1` [Afatinib], in assay [1], the AUC is listed as less than 60%. The concentration for a half-maximal effect (EC50) with PaTu-8988-T is 2740 nM; with Colo-357 it was 1.6 nM; in the assay with Dan-G, 1.59 nM; in the assay with AsPC-1, greater than 10000 nM; in the assay on FAMPAC, greater than 10000 nM; in the assay with MiaPaCa-2, 1700 nM. In addition, the EC50 in the assay on BxPC-3 was 6420 nM; in the assay on Suit2-07, 9950 nM; with Capan-1, 4990 nM; with PANC-1 [2], 6660 nM; in the assay with PSN-1, greater than 10000 nM; with HPDE, 22.8 nM. Moreover, the concentration for a half-maximal effect (EC50) with HuP-T4 is greater than 10000 nM.

In the case of `COc1cc2ncnc(Nc3ccc(F)c(Cl)c3)c2cc1NC(=O)/C=C/CN1CCCCC1` [Dacomitinib], the AUC in assay [1] was less than 60%. For the same molecule, the EC50 is 2200 nM in the assay on PaTu-8988-T; 909 nM in the assay with Colo-357; 2440 nM in the assay on Dan-G; greater than 10000 nM in the assay with AsPC-1; 3270 nM with FAMPAC; 2210 nM in the assay on MiaPaCa-2. Also, the EC50 was greater than 10000 nM in the assay on BxPC-3; 1730 nM in the assay on Suit2-07; 10300 nM with Capan-1; 3920 nM with PANC-1 [2]; 3850 nM in the assay with PSN-1; 46.5 nM in the assay on HPDE. The EC50 in the assay on HuP-T4 is greater than 10000 nM.

Turning to `CCOc1cc2ncc(C#N)c(Nc3ccc(OCc4ccccn4)c(Cl)c3)c2cc1NC(=O)/C=C/CN(C)C` [Neratinib], in [1], the AUC was less than 60%. The EC50 in the assay with PANC-1 [3] is 8210 nM; in the assay on PaTu-8988-T, 835 nM; in the assay with Colo-357, 1280 nM; with Dan-G, 7080 nM; in the assay with AsPC-1, 816 nM; in the assay with FAMPAC, 1320 nM. The EC50 with MiaPaCa-2 is 863 nM; in the assay with BxPC-3, 1210 nM; with Suit2-07, 1400 nM; in the assay with Capan-1 it was 6740 nM; with PSN-1, greater than 10000 nM; with HPDE, 60.8 nM. Also, the EC50 in the assay with HuP-T4 was greater than 10000 nM.

Take `O=C(/C=C\n1cnc(-c2cc(C(F)(F)F)cc(C(F)(F)F)c2)n1)NNc1cnccn1` [Selinexor]: the AUC in [1] is less than 60%. Also, the EC50 with PANC-1 [3] came out at 182 nM; in the assay with PaTu-8988-T, 116 nM; in the assay on Colo-357 it was 190 nM; in the assay with Dan-G, 113 nM; in the assay with AsPC-1 it was 229 nM; with FAMPAC, 97 nM. The 50% effective concentration (EC50) in the assay with MiaPaCa-2 came to 190 nM; in the assay on BxPC-3, 114 nM; in the assay on Suit2-07 it was 61 nM; in the assay on Capan-1 it was 226 nM; with PSN-1, 64.2 nM; with HPDE, 37.7 nM. For the same molecule, the half-maximal effective concentration (EC50) with HuP-T4 came to 1200 nM.

The values are drawn from PMC11876601 (Molecular Systems Biology, 2025).
